According to article PMC9052545 (RSC Advances, 2020):

These substances were tested against HER2-Fc (HER2) (Homo sapiens, UniProt P04626). Settings: SEM, n = 3.

Substance | Kd [nM]
FN3 with RKPKSG grafted at residues 51-56 (His-tagged) [FN3-p4.4] | 500 ± 150
FN3 with YCGCEM grafted at residues 51-56 (His-tagged) [FN3-p1] | 280 ± 23
FN3 with YCICCM grafted at residues 51-56 (His-tagged) [FN3-p1.M.1] | 68 ± 14
FN3 with YCPVCM grafted at residues 51-56 (His-tagged) [FN3-p1.M.3] | 110 ± 28
